Experimental data published in patent US20080287299A1, “Use of Imidazole and/or Triazole Derivatives for Combating Plant Pests; as Well as Method for Controlling Diseases/Insects/Mites/Nematodes and Weeds, Particularly Foliar and/or Soil Diseases” (priority 2005, published 2008).

System: Phakopsora pachyrhizi
Assay: Greenhouse soybean rust test, plants at V5 stage, evaluated every 7 days
Type: in vivo
Conditions: for SEVERITY OF RUST (% IFA) 7 DAT / SEVERITY OF RUST (% IFA) 14 DAT / SEVERITY OF RUST (% IFA) 21 DAT / SEVERITY OF RUST (% IFA) 28 DAT: soybean; for effective in controlling soybean rust: from 50 grams of active ingredient per hectare
Source text: Recent tests carried out in greenhouses the laboratory of FMC Quimica do Brasil Ltda. in Uberaba, MG, Brazil, show the highly fungicidal effect of said specific imidazole and/or triazole derivatives in combating diseases of plants, particularly against the attack by the fungus Phakopsora pachyrhizi on soybeans, as described hereinafter.
Experimental Outline Experimental Outline: entirely made with five repetitions, two plants per repetition, totaling 10 plants.
a) Preventive Mode: 30 days after plantation of the soybeans in plastic 2-liter pots and with corresponding volumes of soil, the soybean plants were at the V5 stage with six expanded folioles. At this moment, the compounds were sprayed and then, 48 hours afterwards, inoculation of the rust was effected. To effect the inoculation, one prepared a suspension of Phakopsora uredospores at the concentration of 2×10^4 spores/milliliters.
b) Healing mode: 30 days after plantation of the soybeans in 2-liter plastic pots and with a corresponding volume of soil, the soybean plants were at the V5 stage with six expanded folioles. At this moment, one effected the inoculation of the rust and then, 48 hours afterwards, the compounds were sprayed. To effect the inoculation, one prepared a suspension of Phakopsora uredospores at the concentration of 2×10^4 spores/milliliters.
Equipment: a manual sprayer commonly used in agriculture with 2-liter capacity.
Dosages: 50 to 300 grams per hectare of the active compound Itraconazole per liter diluted in water.
Evaluations of the Effectiveness of the Product: The evaluations were made every 7 days after application of the product, in a total of 4 evaluations. As an evaluation parameter one utilized the severity of the disease (percentage of foliar area attacked by rust) according to FIG. 1).
Dosages: 50 to 300 grams per hectare of the active compound Voriconazole per liter diluted in water.

CC[C@@H]([C@H](C)O)n1ncn(-c2ccc(N3CCN(c4ccc(OC[C@@H]5CO[C@](Cn6cncn6)(c6ccc(F)cc6F)C5)cc4)CC3)cc2)c1=O [Posaconazole, 1-((1S,2S)-1-ethyl-2-hydroxypropyl)-4-{4-[4-(4-{[(5S,3R)-5-(2,4-difluorophenyl)-5-(1,2,4-triazolylmethyll)oxolan-3-yl]methoxy}phenyl)pipera-zinyl]phenyl}-1,2,4-triazolin-5-one]
SEVERITY OF RUST (% IFA) 7 DAT (Table 6: 50 g ac/ha): 11 % IFA
SEVERITY OF RUST (% IFA) 14 DAT (Table 6: 50 g ac/ha): 13 % IFA
SEVERITY OF RUST (% IFA) 21 DAT (Table 6: 50 g ac/ha): 15 % IFA
SEVERITY OF RUST (% IFA) 28 DAT (Table 6: 50 g ac/ha): 14 % IFA
SEVERITY OF RUST (% IFA) 7 DAT (Table 6: 100 g ac/ha): 5 % IFA
SEVERITY OF RUST (% IFA) 14 DAT (Table 6: 100 g ac/ha): 8 % IFA
SEVERITY OF RUST (% IFA) 21 DAT (Table 6: 100 g ac/ha): 12 % IFA
SEVERITY OF RUST (% IFA) 28 DAT (Table 6: 100 g ac/ha): 13 % IFA
SEVERITY OF RUST (% IFA) 7 DAT (Table 6: 150 g ac/ha): 0 % IFA
SEVERITY OF RUST (% IFA) 14 DAT (Table 6: 150 g ac/ha): 6 % IFA
SEVERITY OF RUST (% IFA) 21 DAT (Table 6: 150 g ac/ha): 9 % IFA
SEVERITY OF RUST (% IFA) 28 DAT (Table 6: 150 g ac/ha): 12 % IFA
SEVERITY OF RUST (% IFA) 7 DAT (Table 6: 200 g ac/ha): 3 % IFA
SEVERITY OF RUST (% IFA) 14 DAT (Table 6: 200 g ac/ha): 0 % IFA
SEVERITY OF RUST (% IFA) 21 DAT (Table 6: 200 g ac/ha): 6 % IFA
SEVERITY OF RUST (% IFA) 28 DAT (Table 6: 200 g ac/ha): 9 % IFA
SEVERITY OF RUST (% IFA) 7 DAT (Table 6: 300 g ac/ha): 0 % IFA
SEVERITY OF RUST (% IFA) 14 DAT (Table 6: 300 g ac/ha): 0 % IFA
SEVERITY OF RUST (% IFA) 21 DAT (Table 6: 300 g ac/ha): 3 % IFA
SEVERITY OF RUST (% IFA) 28 DAT (Table 6: 300 g ac/ha): 7 % IFA
effective in controlling soybean rust: effective in controlling soybean rust

C[C@@H](c1nc(-c2ccc(C#N)cc2)cs1)[C@](O)(Cn1cncn1)c1ccc(F)cc1F [Ravuconazole, 4-[2-[(1R,2R)-2-(2,4-difluor-phenyl)-2-hydroxy-1-methyl-3-(1H-1,2,4-triazol-1-yl)propyl]4-thiazolyl]-benzonitriyl]
SEVERITY OF RUST (% IFA) 7 DAT (Table 4: 50 g ca/ha): 15 % IFA
SEVERITY OF RUST (% IFA) 14 DAT (Table 4: 50 g ca/ha): 16 % IFA
SEVERITY OF RUST (% IFA) 21 DAT (Table 4: 50 g ca/ha): 16 % IFA
SEVERITY OF RUST (% IFA) 28 DAT (Table 4: 50 g ca/ha): 18 % IFA
SEVERITY OF RUST (% IFA) 7 DAT (Table 4: 100 g ca/ha): 12 % IFA
SEVERITY OF RUST (% IFA) 14 DAT (Table 4: 100 g ca/ha): 12 % IFA
SEVERITY OF RUST (% IFA) 21 DAT (Table 4: 100 g ca/ha): 14 % IFA
SEVERITY OF RUST (% IFA) 28 DAT (Table 4: 100 g ca/ha): 18 % IFA
SEVERITY OF RUST (% IFA) 7 DAT (Table 4: 150 g ca/ha): 9 % IFA
SEVERITY OF RUST (% IFA) 14 DAT (Table 4: 150 g ca/ha): 11 % IFA
SEVERITY OF RUST (% IFA) 21 DAT (Table 4: 150 g ca/ha): 11 % IFA
SEVERITY OF RUST (% IFA) 28 DAT (Table 4: 150 g ca/ha): 16 % IFA
SEVERITY OF RUST (% IFA) 7 DAT (Table 4: 200 g ca/ha): 3 % IFA
SEVERITY OF RUST (% IFA) 14 DAT (Table 4: 200 g ca/ha): 7 % IFA
SEVERITY OF RUST (% IFA) 21 DAT (Table 4: 200 g ca/ha): 11 % IFA
SEVERITY OF RUST (% IFA) 28 DAT (Table 4: 200 g ca/ha): 15 % IFA
SEVERITY OF RUST (% IFA) 7 DAT (Table 4: 300 g ca/ha): 2 % IFA
SEVERITY OF RUST (% IFA) 14 DAT (Table 4: 300 g ca/ha): 3 % IFA
SEVERITY OF RUST (% IFA) 21 DAT (Table 4: 300 g ca/ha): 9 % IFA
SEVERITY OF RUST (% IFA) 28 DAT (Table 4: 300 g ca/ha): 11 % IFA
effective in controlling soybean rust: effective
